What was measured:
[1] = biological target: Aldo-keto reductase family 1 member B1 (Rattus norvegicus, UniProt P07943); assay: Inhibition of ALR2 from rat lens using D,L-glyceraldehyde as substrate measured as absorption of NADPH for 4 mins by UV/vis spectrophotmetry
[2] = Antioxidant activity assessed as DPPH free radical scavenging activity at 100 uM after 40 mins by UV-Vis spectrophotometry; format: physicochemical
Brain = assay: Reduction of MDA level in Wistar rat brain at 100 uM after 30 mins in presence of ascorbic acid by UV-vis spectrophotmetry relative to control; format: functional; conditions: 0.5 h
[3] = Antioxidant activity assessed as DPPH free radical scavenging activity at 100 uM after 120 mins under sunlight by UV-Vis spectrophotometry; format: physicochemical; conditions: 2 h
[4] = Antioxidant activity assessed as DPPH free radical scavenging activity at 10 uM after 120 mins under sunlight by UV-Vis spectrophotometry; format: physicochemical; conditions: 2 h
[5] = Antioxidant activity assessed as DPPH free radical scavenging activity at 100 uM after 30 mins under sunlight by UV-Vis spectrophotometry; format: physicochemical; conditions: 0.5 h
[6] = Antioxidant activity assessed as DPPH free radical scavenging activity at 10 uM after 30 mins under sunlight by UV-Vis spectrophotometry; format: physicochemical; conditions: 0.5 h
[7] = Antioxidant activity assessed as DPPH free radical scavenging activity at 1 uM after 30 mins under sunlight by UV-Vis spectrophotometry; format: physicochemical; conditions: 0.5 h
[8] = Antioxidant activity assessed as DPPH free radical scavenging activity after 30 mins under sunlight by UV-Vis spectrophotometry; format: physicochemical
[9] = Antioxidant activity assessed as DPPH free radical scavenging activity at 10 uM after 40 mins by UV-Vis spectrophotometry; format: physicochemical
[10] = Antioxidant activity assessed as DPPH free radical scavenging activity at 1 uM after 40 mins by UV-Vis spectrophotometry; format: physicochemical

Row | SMILES | IC50 [1] [µM] | inhibition (INH) [2] [%] | inhibition at 100 µM (Brain) [%] | other results
1 | COc1ccc(CN2CN(CC(=O)O)c3ccc(OC)cc3S2(=O)=O)cc1 | 11.2 | 40.6 | 31.5 | –
2 | COc1ccc(CN2CN(CC(=O)O)c3ccc(Cl)cc3S2(=O)=O)cc1 | 7.5 | 5.9 | 1.6 | –
3 | COc1ccc2c(c1)S(=O)(=O)N(Cc1ccccc1)CN2CC(=O)O | 13.6 | 53.1 | 42.3 | –
4 | Cc1ccc2c(c1)S(=O)(=O)N(Cc1cc(O)ccc1F)CN2CC(=O)O | 4.8 | 32.3 | 14.1 | –
5 | COc1ccc(CN2CN(CC(=O)O)c3ccc(Br)cc3S2(=O)=O)cc1 | 7.2 | 6.2 | 2.6 | –
6 | O=C(O)CN1CN(Cc2ccccc2)S(=O)(=O)c2cc(O)ccc21 | 9.4 | – | 88 | inhibition (INH) [3]: 93.3%; inhibition (INH) [4]: 24.4%
7 | COc1ccc(CN2CN(CC(=O)O)c3ccc(C)cc3S2(=O)=O)cc1 | 18.2 | 3.1 | 8.4 | –
8 | O=C(O)CN1CN(Cc2ccc(O)cc2)S(=O)(=O)c2cc(O)ccc21 | 7.6 | – | 100 | inhibition (INH) [5]: 98%; inhibition (INH) [6]: 92.3%; inhibition (INH) [7]: 42.1%; EC50 [8]: 7.6 µM
9 | COc1ccc(F)c(CN2CN(CC(=O)O)c3ccc(Br)cc3S2(=O)=O)c1 | 1.8 | 44.3 | 9.55 | –
10 | COc1ccc(F)c(CN2CN(CC(=O)O)c3ccc(C)cc3S2(=O)=O)c1 | 3.5 | 18.9 | 4.47 | –
11 | Cc1ccc2c(c1)S(=O)(=O)N(Cc1ccc(O)cc1)CN2CC(=O)O | 5.6 | 5.2 | 11 | –
12 | CC(/C=C1\SC(=S)N(CC(=O)O)C1=O)=C\c1ccccc1 | – | 0 | 0 | –
13 | Cc1c(C)c2c(c(C)c1O)CCC(C)(C(=O)O)O2 (stereo not drawn) [TROLOX] | – | 97 | 100 | inhibition (INH) [9]: 91.1%; inhibition (INH) [10]: 32%

From ChEMBL document CHEMBL3797117 (Bioorg Med Chem Lett, 2016)
